Results: patent US6414007B1, “Oxiranyl-triazoline thiones and their use as microbicides” (Bayer Aktiengesellschaft, priority 1997, dated 2002)

Columns and labels:
[1] = test system: Podosphaera leucotricha; assay: Podosphaera test (apple)/protective; format: in vivo; details: protective, evaluation 10 days after inoculation
Method: Podosphaera test (apple)/protective Solvent: 47 parts by weight of acetone Emulsifier: 3 parts by weight of alkylaryl polyglycol ether To produce a suitable preparation of active compound, 1 part by weight of active compound is mixed with the stated amounts of solvent and emulsifier, and the concentrate is diluted with water to the desired concentration. To test for protective activity, young plants are sprayed with the preparation of active compound at the stated application rate. After the spray coating has dried on, the plants are inoculated with an aqueous spore suspension of the causative organism of apple mildew Podosphaera leucotricha. The plants are then placed in a greenhouse at approximately 23° C. and a relative atmospheric humidity of approximately 70%. Evaluation was carried out 10 days after the inoculation. 0% means an efficacy which corresponds to that of the control, whereas an efficacy of 100% means that no infections are observed.

[2] = test system: Erysiphe graminis f.sp. hordei; assay: Erysiphe test (barley)/protective; format: in vivo; details: protective, application rate 125 g/ha, evaluation 7 days after inoculation
Method: (§1) Erysiphe test (barley)/protective Solvent: 25 parts by weight of N,N-dimethylacetamide Emulsifier: 0.6 parts by weight of alkylaryl polyglycol ether To produce a suitable preparation of active compound, 1 part by weight of active compound is mixed with the stated amounts of solvent and emulsifier, and the concentrate is diluted with water to the desired concentration. To test for protective activity, young plants are sprayed with the preparation of active compound at the stated application rate. After the spray coating has dried on, the plants are dusted with spores of Erysiphe graminis f.sp. hordei. The plants are placed in a greenhouse at a temperature of approximately 20° C. and a relative atmospheric humidity of approximately 80% to promote the development of mildew pustules. Evaluation is carried out 7 days after the inoculation. 0% means an efficacy which corresponds to that of the control, whereas an efficacy of 100% means that no infections are observed.

[3] = test system: Erysiphe graminis f.sp. tritici; assay: Erysiphe test (wheat)/protective; format: in vivo; details: protective, application rate 250 g/ha, evaluation 7 days after inoculation
Method: as §1, with “(wheat)/protective” for “(barley)/protective”, “tritici.” for “hordei.”

[4] = test system: Puccinia recondita; assay: Puccinia test (wheat)/curative; format: in vivo; details: curative, application rate 125 g/ha, evaluation 10 days after inoculation
Method: Puccinia test (wheat)/curative Solvent: 25 parts by weight of N,N-dimethylacetamide Emulsifier: 0.6 parts by weight of alkylaryl polyglycol ether To produce a suitable preparation of active compound, 1 part by weight of active compound is mixed with the stated amounts of solvent and emulsifier, and the concentrate is diluted with water to the desired concentration. To test for curative activity, young plants are sprayed with a Conidia suspension of Puccinia recondita. The plants remain in an incubation cabin at 20° C. and 100% relative atmospheric humidity for 48 hours. The plants are then sprayed with the preparation of active compound at the stated application rate. The plants are placed in a greenhouse at a temperature of approximately 20° C. and a relative atmospheric humidity of approximately 80% to promote the development of rust pustules. Evaluation is carried out 10 days after the inoculation. 0% means an efficacy which corresponds to that of the control, whereas an efficacy of 100% means that no infections are observed.

[5] = test system: Coriolus versicolor; assay: Inhibition test on giant colonies of Basidiomycetes; format: cell-based; details: Trametes versicolor; 6 ppm of active compound, malt extract peptone agar, 26° C., evaluation after 3 or 7 days; read-out: Inhibition in per cent of radial growth of giant colonies
Method: Inhibition test on giant colonies of Basidiomycetes Solvent: Dimethylsulphoxide To produce a suitable preparation of active compound, 0.2 parts by weight of active compound are admixed to 99.8 parts by weight of the abovementioned solvent. An agar, prepared by using malt extract peptone, is mixed in a liquid state with the preparation of active compound at the particular desired application rate. After solidification, the resultant nutrient medium is incubated at 26° C. with mycelium pieces punched out of colonies of Coriolus versicolor. Evaluation is carried out after 3 or 7 days' storage at 26° C. by measuring the growth of the mycelium and scoring the resulting inhibition in percent in comparison to the untreated control. 0% means an inhibition of growth which corresponds to that of the untreated control, while an inhibition of growth of 100% means that no growth of mycelium is observed.

[6] = test system: Erysiphe graminis f.sp. hordei; assay: Erysiphe test (barley)/curative; format: in vivo; details: curative (sprayed 48 hours after inoculation), application rate 250 g/ha, evaluation 7 days after inoculation
Method: as §1, with “(barley)/curative” for “(barley)/protective”, “curative” for “protective”, “young plants are dusted with spores of Erysiphe graminis f.sp. hordei. 48 hours after the inoculation, the” for “young”, “rate.” for “rate. After the spray coating has dried on, the plants are dusted with spores of Erysiphe graminis f.sp. hordei.”

[7] = test system: Leptosphaeria nodorum; assay: Leptosphaeria nodorum test (wheat)/protective; format: in vivo; details: protective, application rate 250 g/ha, evaluation 10 days after inoculation
Method: Leptosphaeria nodorum test (wheat)/protective Solvent: 25 parts by weight of N,N-dimethylacetamide Emulsifier: 0.6 parts by weight of alkylaryl polyglycol ether To produce a suitable preparation of active compound, 1 part by weight of active compound is mixed with the stated amounts of solvent and emulsifier, and the concentrate is diluted with water to the desired concentration. To test for protective activity, young plants are sprayed with the preparation of active compound at the stated application rate. After the spray coating has dried on, the plants are dusted with a spore suspension of Leptosphaeria nodorum. The plants remain in an incubation cabin at 20° C. and 100% relative atmospheric humidity for 48 hours. The plants are placed in a greenhouse at a temperature of approximately 15° C. and a relative atmospheric humidity of 80%. Evaluation is carried out 10 days after the inoculation. 0% means an efficacy which corresponds to that of the control, whereas an efficacy of 100% means that no infections are observed.

[8] = test system: Puccinia recondita; assay: Puccinia test (wheat)/protective; format: in vivo; details: protective, application rate 125 g/ha, evaluation 10 days after inoculation
Method: Puccinia test (wheat)/protective Solvent: 25 parts by weight of N,N-dimethylacetamide Emulsifier: 0.6 parts by weight of alkylaryl polyglycol ether To produce a suitable preparation of active compound, 1 part by weight of active compound is mixed with the stated amounts of solvent and emulsifier, and the concentrate is diluted with water to the desired concentration. To test for protective activity, young plants are sprayed with the preparation of active compound at the stated application rate. After the spray coating has dried on, the plants are sprayed with a […] of Puccinia recondita. The plants remain in an incubation cabin at 20° C. and 100% relative atmospheric humidity for 48 hours. The plants are placed in a greenhouse at a temperature of approximately 20° C. and a relative atmospheric humidity of approximately 80% to promote the development of rust pustules. Evaluation is carried out 10 days after the inoculation. 0% means an efficacy which corresponds to that of the control, whereas an efficacy of 100% means that no infections are observed.

melting point	Structure (SMILES)	Efficacy in % ([1]; application rate 1 g/ha)	Efficacy in % ([1]; application rate 10 g/ha)	Efficacy in % [2]	Efficacy in % [3]	Efficacy in % [4]	inhibition at 6 ppm [5]	Efficacy in % [6]	Efficacy in % [7]	Efficacy in % [8]
–	Fc1ccc(C2(Cn3nc[nH]c3=S)OC2c2ccccc2Cl)cc1 (stereo not drawn) [A, 3-(2-chloro-phenyl)-2-(4-fluoro-phenyl)-2-[(4,5-dihydro-5-thiono-1,2,4-triazol-1-yl)-methyl]-oxirane, reference compound]	57%	92%	–	–	–	–	–	–	–
104 to 106 °C	CC(C)NC(=O)n1cnn(CC2(c3ccc(F)cc3)OC2c2ccccc2Cl)c1=S (stereo not drawn) [Example 3]	80%	100%	100%	100%	100%	100%	–	–	–
–	CCOCCCNC(=O)n1cnn(CC2(c3ccc(F)cc3)OC2c2ccccc2Cl)c1=S (stereo not drawn) [Example 1]	65%	100%	100%	100%	100%	100%	100%	100%	100%
105 to 107 °C	COCCNC(=O)n1cnn(CC2(c3ccc(F)cc3)OC2c2ccccc2Cl)c1=S (stereo not drawn) [Example 2]	88%	100%	100%	–	100%	–	–	–	100%
